In patent US9382257B2, “Substituted pyrrolo[2,3-b]pyrazines as serine/threonine kinase inhibitors” (Genentech, Inc., priority 2002, dated 2016):

Tests used:
[1] = system: PMA-stimulated P90RSK(Ser380) phosphorylation in HepG2 cells; experiment: Cellular P90RSK(Ser380) Phosphorylation Assay (Example 4); assay type: cell-based; conditions: Homo sapiens, 1.5 hour compound incubation, PMA 100 ng/mL, normalized to GAPDH, read-out: RSK Inhibition IC50
Procedure: Cellular P90RSK(Ser380) Phosphorylation Assay
Inhibition of PMA-stimulated P90RSK(Ser380) phosphorylation was determined by the following in vitro cellular mechanistic assay, which comprises incubating cells with a compound for 1.5 hours and quantifying fluorescent pP90RSK(Ser380) signal on fixed cells and normalizing to GAPDH signal.
Materials and Methods: HepG2 cells were obtained from ATCC and grown in DMEM supplemented with 10% fetal bovine serum. Cells were plated in 96-well plates at 35,000 cells/well and allowed to attach overnight at 37° C./5% CO2. Diluted compounds were then added at a final concentration of 0.5% DMSO. After 1.5 hour compound incubation, cells were stimulated with the addition of PMA (phorbol 12-myristate 13-acetate) at a final concentration of 100 ng/mL; the PMA stimulation was a 30-minute incubation at 37° C./5% CO2. After the 30-minute PMA stimulation, cells were washed with PBS and fixed in 3.7% formaldehyde in PBS at room temperature for 15-20 minutes. This was followed by another wash in PBS and then permeabilization in 100% MeOH at room temperature for 10-15 minutes. Following the permeabilization incubation, cells were washed in PBS/0.05% Tween-20, followed by a block in Odyssey blocking buffer (LI-COR Biosciences) for at least 1 hour. Antibodies to phosphorylated P90RSK(Ser380) (Cell Signaling #9335, rabbit monoclonal) and GAPDH (Fitzgerald 10R-G109a, mouse monoclonal) were added to the cells and incubated overnight at 4° C. pP90RSK(Ser380) antibody was used at a 1:250 dilution; GAPDH was used at a 1:10,000 dilution. After washing with PBS/0.05% Tween-20, the cells were incubated with fluorescently-labeled secondary antibodies (Anti-rabbit-Alexa Flour680, Invitrogen Cat#A21109; Anti-mouse-IRDye800CW, Rockland Inc. Cat#610-131-121) for 1 hour. Both secondary antibodies were used at a 1:1000 dilution. Cells were then washed and analyzed for fluorescence at both wavelengths using the Odyssey Infrared Imaging System (LI-COR Biosciences). Phosphorylated P90RSK(Ser380) signal was normalized to GAPDH signal. Representative date is in TABLE 2 (infra).

[2] = target: T1, human ERK-2 (Mitogen Activated Kinase 1) (Homo sapiens, UniProt P28482); experiment: ERK-2 Enzymatic Assay (Example 2); assay type: biochemical; conditions: Omnia peptide S/T17, 25 μM ATP, read-out: ERK Inhibition IC50
T1 construct: n-terminal 6-His fusion protein in E. coli and corresponding to aa 8-360; 6-His (N); made in house; host or cells: E. coli
T1 sequence (P28482 8-360): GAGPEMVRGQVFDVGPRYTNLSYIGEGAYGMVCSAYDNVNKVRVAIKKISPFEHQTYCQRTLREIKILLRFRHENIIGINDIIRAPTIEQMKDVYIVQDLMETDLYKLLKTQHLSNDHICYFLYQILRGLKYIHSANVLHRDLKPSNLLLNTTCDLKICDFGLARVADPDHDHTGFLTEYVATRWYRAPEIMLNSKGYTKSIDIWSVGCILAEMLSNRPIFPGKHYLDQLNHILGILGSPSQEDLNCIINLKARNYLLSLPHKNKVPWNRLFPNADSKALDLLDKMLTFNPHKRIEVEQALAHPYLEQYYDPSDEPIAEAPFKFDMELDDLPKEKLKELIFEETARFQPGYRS
Procedure: Compounds were tested in an enzymatic assay using human ERK-2 (Mitogen Activated Kinase 1), recombinantly expressed as an n-terminal 6-His fusion protein in E. coli and corresponding to aa 8-360. The substrate used was the fluorescent Omnia peptide S/T17 (Invitrogen of Carlsbad, Calif.; Cat. KNZ1171C). Test compounds were diluted in DMSO in 3-fold serial dilutions at 100× final concentrations. […] The assay was run at ambient temperature in a white 384-well polypropylene plate (Nunc, Inc of Naperville, Ill.; Cat. 267462) collecting data every 50 seconds for approximately 30 minutes on an Envision plate reader (PerkinElmer, Inc. of Waltham, Mass.); Excitation 340 nm/Emission 495 nm. The data collected from each well was fit to a straight line and the resulting rates were used to calculate percent of control. Percent of control was plotted against compound concentration and IC50 values were determined using a four-parameter fit. Representative date is in TABLE 2 (infra).

Structure (SMILES) | IC50 [1] [nM] | IC50 [2] [nM]
Cc1[nH]ncc1-c1cnc2[nH]cc(-c3cnn(Cc4ccc(F)cc4F)c3)c2n1 [I-1, 7-[1-(2,4-difluoro-benzyl)-1H-pyrazol-4-yl]-2-(5-methyl-1H-pyrazol-4-yl)-5H-pyrrolo[2,3-b]pyrazine] | 242 | 1.23
Cc1[nH]ncc1-c1cnc2[nH]cc(-c3cnn(Cc4ccc(F)c(Cl)c4)c3)c2n1 [I-2, 7-[1-(3-chloro-4-fluoro-benzyl)-1H-pyrazol-4-yl]-2-(5-methyl-1H-pyrazol-4-yl)-5H-pyrrolo[2,3-b]pyrazine] | 276 | 2.36
Fc1cccc(Cn2cc(-c3c[nH]c4ncc(-c5cn[nH]c5)nc34)cn2)c1 [I-3, 7-[1-(3-fluoro-benzyl)-1H-pyrazol-4-yl]-2-(1H-pyrazol-4-yl)-5H-pyrrolo[2,3-b]pyrazine] | 403 | 2.75
Cc1[nH]ncc1-c1cnc2[nH]cc(-c3cnn(Cc4ccccc4C#N)c3)c2n1 [I-4, 2-{4-[2-(5-methyl-1H-pyrazol-4-yl)-5H-pyrrolo[2,3-b]pyrazin-7-yl]-pyrazol-1-ylmethyl}-benzonitrile] | 202 | 1.3
Cc1[nH]ncc1-c1cnc2[nH]cc(-c3cnn(Cc4ccccc4[N+](=O)[O-])c3)c2n1 [I-5, 2-(5-methyl-1H-pyrazol-4-yl)-7-[1-(2-nitro-benzyl)-1H-pyrazol-4-yl]-5H-pyrrolo[2,3-b]pyrazine] | 97.2 | 1.5
Cc1[nH]ncc1-c1cnc2[nH]cc(-c3cnn(Cc4c(F)cccc4Cl)c3)c2n1 [I-6, 7-[1-(2-chloro-6-fluoro-benzyl)-1H-pyrazol-4-yl]-2-(5-methyl-1H-pyrazol-4-yl)-5H-pyrrolo[2,3-b]pyrazine] | 214 | 1.84
COc1ccc(Cn2cc(-c3c[nH]c4ncc(-c5cn[nH]c5C)nc34)cn2)cc1F [I-7, 7-[1-(3-fluoro-4-methoxy-benzyl)-1H-pyrazol-4-yl]-2-(5-methyl-1H-pyrazol-4-yl)-5H-pyrrolo[2,3-b]pyrazine] | 340 | 1.89
Cc1[nH]ncc1-c1cnc2[nH]cc(-c3cnn(Cc4ccccc4OC(F)F)c3)c2n1 [I-8, 7-[1-(2-difluoromethoxy-benzyl)-1H-pyrazol-4-yl]-2-(5-methyl-1H-pyrazol-4-yl)-5H-pyrrolo[2,3-b]pyrazine] | 191 | 2.5
Cc1[nH]ncc1-c1cnc2[nH]cc(-c3cnn([C@@H](C)c4ccccc4Cl)c3)c2n1 [I-9, 7-{1-[(S)-1-(2-chloro-phenyl)-ethyl]-1H-pyrazol-4-yl}-2-(5-methyl-1H-pyrazol-4-yl)-5H-pyrrolo[2,3-b]pyrazine] | 299 | 2.8
Cc1n[nH]c(C)c1-c1cnc2[nH]cc(-c3cnn(Cc4cccc(F)c4)c3)c2n1 [I-10, 2-(3,5-dimethyl-1H-pyrazol-4-yl)-7-[1-(3-fluoro-benzyl)-1H-pyrazol-4-yl]-5H-pyrrolo[2,3-b]pyrazine] | 387 | 2.7
Fc1cccc(Cn2cc(-c3c[nH]c4ncc(-c5ccncc5)nc34)cn2)c1 [I-11, 7-[1-(3-fluoro-benzyl)-1H-pyrazol-4-yl]-2-pyridin-4-yl-5H-pyrrolo[2,3-b]pyrazine] | 501 | 2.77
Cc1[nH]ncc1-c1cnc2[nH]cc(-c3cnn(Cc4cccc5cccnc45)c3)c2n1 [I-15, 8-{4-[2-(5-methyl-1H-pyrazol-4-yl)-5H-pyrrolo[2,3-b]pyrazin-7-yl]-pyrazol-1-ylmethyl}-quinoline] | 651 | 14
Cc1n[nH]cc1-c1cnc2[nH]cc(-c3cnn(C(C)(C)c4ccccc4)c3)c2n1 [I-17, 7-[1-(1-methyl-1-phenyl-ethyl)-1H-pyrazol-4-yl]-2-(3-methyl-1H-pyrazol-4-yl)-5H-pyrrolo[2,3-b]pyrazine] | 2300 | 36
Cc1n[nH]cc1-c1cnc2[nH]cc(-c3cnn(CCc4ccc(C(F)(F)F)cc4)c3)c2n1 [I-18, 2-(3-methyl-1H-pyrazol-4-yl)-7-{1-[2-(4-trifluoromethyl-phenyl)-ethyl]-1H-pyrazol-4-yl}-5H-pyrrolo[2,3-b]pyrazine] | ≥ 50000 | 44.4
c1ccc(Cn2cc(-c3c[nH]c4ncc(-c5ccncc5)nc34)cn2)cc1 [I-21, 7-(1-benzyl-1H-pyrazol-4-yl)-2-(pyridin-4-yl)-5H-pyrrolo[2,3-b]pyrazine] | 1300 | 6.9
Cc1[nH]ncc1-c1cnc2[nH]cc(-c3cnn(Cc4cc(F)ccc4Cl)c3)c2n1 [I-24, 7-[1-(2-chloro-5-fluoro-benzyl)-1H-pyrazol-4-yl]-2-(5-methyl-1H-pyrazol-4-yl)-5H-pyrrolo[2,3-b]pyrazine] | 371 | 2.02
Cc1[nH]ncc1-c1cnc2[nH]cc(-c3cnn(C(C)c4ccccc4Cl)c3)c2n1 (stereo not drawn) [I-25, 7-{1-[1-(2-chloro-phenyl)-ethyl]-1H-pyrazol-4-yl}-2-(5-methyl-1H-pyrazol-4-yl)-5H-pyrrolo[2,3-b]pyrazine] | 200 | 2.2
COc1cccc(F)c1Cn1cc(-c2c[nH]c3ncc(-c4cn[nH]c4C)nc23)cn1 [I-26] | 518 | 3.4
Cc1[nH]ncc1-c1cnc2[nH]cc(-c3cnn(Cc4cc(F)ccc4C#N)c3)c2n1 [I-27, 4-fluoro-2-{4-[2-(5-methyl-1H-pyrazol-4-yl)-5H-pyrrolo[2,3-b]pyrazin-7-yl]-pyrazol-1-ylmethyl}-benzonitrile] | 2000 | 24.8
Cc1[nH]ncc1-c1cnc2[nH]cc(-c3ccc(OCCN4CCOCC4)nc3)c2n1 [II-2, 2-(5-methyl-1H-pyrazol-4-yl)-7-[6-(2-morpholin-4-yl-ethoxy)-pyridin-3-yl]-5H-pyrrolo[2,3-b]pyrazine] | 5700 | 30.1
O=C(NCc1cncc(-c2c[nH]c3ncc(-c4cn[nH]c4)nc23)c1)c1ccc(F)cc1 [II-3, 4-fluoro-N-{5-[2-(1H-pyrazol-4-yl)-5H-pyrrolo[2,3-b]pyrazin-7-yl]-pyridin-3-ylmethyl}-benzamide] | 1600 | –
Cc1cc(C(=O)NCc2cncc(-c3c[nH]c4ncc(-c5cn[nH]c5)nc34)c2)no1 [II-4] | 3700 | 198
Cc1nc(C(=O)NCc2cncc(-c3c[nH]c4ncc(-c5cn[nH]c5)nc34)c2)c(C)o1 [II-5, 2,5-dimethyl-oxazole-4-carboxylic acid {5-[2-(1H-pyrazol-4-yl)-5H-pyrrolo[2,3-b]pyrazin-7-yl]-pyridin-3-ylmethyl}-amide] | ≥ 50000 | 218
Cc1[nH]ncc1-c1cnc2[nH]cc(-c3ccc(NCc4ccccc4)nc3)c2n1 [II-7, benzyl-{5-[2-(5-methyl-1H-pyrazol-4-yl)-5H-pyrrolo[2,3-b]pyrazin-7-yl]-pyridin-2-yl}-amine] | 5700 | 29.9
Cc1[nH]ncc1-c1cnc2[nH]cc(-c3ccc(OCC4CC4)nc3)c2n1 [II-8, 7-(6-cyclopropylmethoxy-pyridin-3-yl)-2-(5-methyl-1H-pyrazol-4-yl)-5H-pyrrolo[2,3-b]pyrazine] | 5900 | 46.7
Cn1nccc1C(=O)NCc1cncc(-c2c[nH]c3ncc(-c4cn[nH]c4)nc23)c1 [II-9, 2-methyl-2H-pyrazole-3-carboxylic acid {5-[2-(1H-pyrazol-4-yl)-5H-pyrrolo[2,3-b]pyrazin-7-yl]-pyridin-3-ylmethyl}-amide] | ≥ 50000 | 144
